According to article PMC6770728, “CYP2D6 Genotype Predicts Plasma Concentrations of Tamoxifen Metabolites in Ethiopian Breast Cancer Patients” (Cancers, 2019):
Read-outs that look alike come from different tables or passages of the source. Values belong to the compound of their own block, whether it stands above or below them.

How the values were obtained:
[1] = Plasma concentrations of tamoxifen and its metabolites by LC-MS/MS in breast cancer patients on adjuvant tamoxifen; assay type: in vivo, human; settings: for Plasma concentration (median + IQR): 81 Ethiopian breast cancer patients, tamoxifen 20 mg/day for at least three months; for MR E/NDM: listed as E
Method: This study was conducted at the radiotherapy center of Tikur Anbessa specialized hospital, Addis Ababa University, Addis Ababa, Ethiopia. A total of 81 female breast cancer patients who were on adjuvant tamoxifen were enrolled. These patients had completed a full course of chemotherapy and were on tamoxifen 20 mg/day for at least three months. None of the study participants were taking any known CYP2D6 enzyme inhibitor as co-medication. The study protocol was approved by the Institutional Review Board (IRB) of the College of Health Sciences, Addis Ababa University (AAU) (Ref No: 011/16/2016), the Armauer Hansen Research Institute Ethical Review Committee (AAERC) (Ref No: PO26/16) and the Ethiopian National Research Ethics Review Committee (NRERC) (Ref No: 3.10/235/2017). Signed informed consent was obtained from individual study participants prior to study enrolment. Patients’ demographic, clinical and tumor characteristics including age, menopausal status, performance status, weight, height, body mass index (BMI), histologic type of the tumor, degree of differentiation, tumor size, lymph node involvement, hormone receptor status and co-morbidity status were collected.
Blood samples were collected in EDTA tube, centrifuged at 2500 g for 10 minutes, and the separated plasma was stored at −80 °C until analysis. Tamoxifen (Tam) and its major metabolites N-desmethyltamoxifen (NDM), (Z)-4-hydroxytamoxifen (4-HT), and (Z)-endoxifen (E) were quantified in the TDM Laboratory, Department of Clinical Pharmacology, Karolinska Institutet (Stockholm, Sweden), by ultra-high-performance liquid chromatography (UHPLC) followed by electrospray tandem mass spectrometry (LC-MS/MS). Briefly, 400 µL internal standard solution (containing 2 ng/mL of Z/E-endoxifen-d5, and 4-OH-tamoxifen-d5, and 20 ng/mL of N-desmethyl-tamoxifen-d5, and tamoxifen-d5) was added to 200 µL of thawed plasma samples and mixed for 10 minutes in a micro plate shaker (Vx-2400 Multitube mixer, Troemner, Philadelphia, USA), followed by centrifugation at 3400 rpm at 4 °C for 10 min. The supernatant was then transferred to new glass vial and evaporated to dryness using vacuum centrifuge. The residue was dissolved in 50 µL methanol over a microplate shaker for 10 min and the resulting solution was then centrifuged at 3400 rpm for 10 min at 4 °C. Ten microliter (10 µL) of the solution was injected into the LC system (Dionex Ultimate 3000, UHPLC focused, Thermo Scientific, California, USA) coupled with a mass spectrometer (TSQ Quantiva, Thermo Scientific). Separation occurred on an Accucore C-18 column (150 × 2.1 mm, Thermo Scientific). The mobile phase for gradient elution consisted of solution A (10 mmol/L ammonium formate with 0.005% formic acid in water) and solution B (10 mmol/L ammonium formate with 0.005% formic acid in 99% methanol). The LC conditions were: column oven temperature of 40 °C, flow rate of 0.50 mL/min, autosampler temperature of 10 °C. Detection was in positive ion mode using electrospray ionization and monitored using Trace Finder software (Thermo Scientific). Under this condition, the retention times were 3.25, 3.26, 3.38, 4.03, and 4.11 min for E-endoxifen, Z-endoxifen, 4-OH-tamoxifen, N-desmethyltamoxifen, and tamoxifen, respectively. Calibration curves were constructed by plotting the ratio of the area of the compound and the internal standard against the standard analyte concentration. Three quality control (QC) samples involving, (i) low-level QC [QCL] (0.3 ng/mL of E and 4-HT and 3 ng/mL of NDM and Tam, (ii) mid-level QC [QCM] (8 ng/mL of E and 4-HT and 80 ng/mL of NDM and Tam), and (iii) high level QC [QCH] (80 ng/mL of E and 4-HT and 800 ng/mL of NDM and Tam) were also included at each run.
Descriptive statistics were computed to explore the demographic characteristics, clinical profiles, genotype frequencies of participants. Chi-square test was used to compare the observed and expected genotype frequency according to Hardy–Weinberg equilibrium. […]

[2] = set-up: method as in PMID 21430657; settings: endoxifen concentration >5.97 ng/mL; cited from earlier work
estrogen receptor (ER) = tested on: estrogen receptor (ER); set-up: method as in PMID 21451508; settings: endoxifen level 13 nM; cited from earlier work
[3] = cited from earlier work
[4] = UGT2B15 c.1568A>C (rs4148269) wild type genotype
[5] = ABCB1 c.4036A>G (rs3842) wild type genotype
[6] = carriers of the G allele for ABCB1 c.4036A>G (rs3842)

Plasma concentration (median + IQR) [1]: 138 (105–200.5) ng/mL | Median plasma concentration [1, 4]: 173.8 ng/mL | Median plasma concentration ([1]; patients with at least one variant allele for UGT2B15 c.1568A>C (rs4148269)): 125.9 ng/mL | Plasma tamoxifen concentration of all included patients ([1]; the 81 patients included in the analysis): > 150 nM
Structure (SMILES): CC/C(=C(\c1ccccc1)c1ccc(OCCN(C)C)cc1)c1ccccc1 [Tamoxifen]

Plasma concentration (median + IQR) [1]: 3.04 (2.15–4.0) ng/mL | Plasma concentration (median + IQR) ([1]; listed as 4-HT): 3.04 ng/mL | Metabolic ratio of 4-Hydroxy-tamoxifen to tamoxifen, MR 4-HT/Tam (median + IQR) ([1]; 81 patients, plasma): 0.022 (0.016–0.029)
Structure (SMILES): CC/C(=C(\c1ccc(O)cc1)c1ccc(OCCN(C)C)cc1)c1ccccc1 [4-Hydroxy-tamoxifen, 4-hydroxy-tamoxifen]

Plasma concentration (median + IQR) [1]: 257 (185.5–343) ng/mL | Metabolic ratio of N-desmethyl-tamoxifen to tamoxifen, MR NDM/Tam (median + IQR) ([1]; human, in vivo): 1.81 (1.51–2.26)
Structure (SMILES): CC/C(=C(\c1ccccc1)c1ccc(OCCNC)cc1)c1ccccc1 [N-Desmethyl-tamoxifen, N-desmethyltamoxifen]

Median endoxifen concentration relative to 4-HT ([1]; 7.94 vs 3.04 ng/mL): 2.6 times | Plasma concentration (median + IQR) [1]: 7.94 (4.68–13.75) ng/mL | Plasma concentration (median + IQR) ([1]; listed as endoxifen): 7.94 ng/mL | Metabolic ratio of endoxifen to 4-hydroxy-tamoxifen, MR E/4-HT (median + IQR) ([1]; 81 patients, plasma): 2.85 (2.10–3.73) | Metabolic ratio of endoxifen to N-desmethyl-tamoxifen, MR E/NDM (median + IQR) ([1]; 81 patients, plasma): 0.038 (0.021–0.06) | MR E/4-HT [1, 5]: 3.02 | MR E/NDM [1, 5]: 0.041 | Patients with low endoxifen concentration (<5.9 ng/mL) / patients in group ([1]; CYP2D6 IM/IM diplotype): 1/1 | Patients with low endoxifen concentration (<5.9 ng/mL) / patients in group ([1]; CYP2D6 IM/PM diplotype): 3/3 | Proportion of patients with low endoxifen concentration (<5.9 ng/mL) ([1]; CYP2D6 NM/IM diplotype (5/12)): 41.7% | Proportion of patients with low endoxifen concentration (<5.9 ng/mL) ([1]; CYP2D6 NM/NM diplotype (11/35)): 31.4% | Proportion of patients with low endoxifen concentration (<5.9 ng/mL) ([1]; CYP2D6 NM/PM diplotype (6/9)): 66.7% | Patients with low endoxifen concentration (<5.9 ng/mL) / patients in group ([1]; CYP2D6 PM/PM diplotype): 1/1 | Median E/4-HT ratio [1, 4]: 2.06 | Proportion of patients with low endoxifen concentration (<5.9 ng/mL) ([1]; all 81 patients): 35.8% | Median E/4-HT ratio ([1]; carriers of C allele for UGT2B15 c.1568A>C (rs4148269)): 2.96 | MR E/4-HT [1, 6]: 2.52 | MR E/NDM [1, 6]: 0.022
Structure (SMILES): CC/C(=C(\c1ccc(O)cc1)c1ccc(OCCNC)cc1)c1ccccc1 [Z-Endoxifen, (Z)-endoxifen]
Lower risk of additional breast cancer events [2]: 30% | Occupancy of the estrogen receptor (ER) in vitro (estrogen receptor (ER)): 90% | Proportion of PMs still able to generate therapeutic concentrations of endoxifen ([3]; CYP2D6 PMs, threshold 5.9 ng/mL): 24% | Proportion of CYP2D6 PMs below endoxifen level of 13 nM ([3]; CYP2D6 poor metabolizers): 93% | Endoxifen plasma concentration lower than without CYP2D6 inhibitors ([3]; IMs on CYP2D6 inhibitors vs IMs not on CYP2D6 inhibitors): 38% | Endoxifen plasma concentration lower than without CYP2D6 inhibitors ([3]; NMs taking CYP2D6 inhibitors vs NMs not on CYP2D6 inhibitors): 58% | Proportion of patients unable to attain therapeutic threshold for endoxifen ([3]; Sweden): 30% | Proportion of patients unable to attain therapeutic threshold for endoxifen ([3]; U.S.): 20%
